According to ChEMBL document CHEMBL5620344, “Discovery of novel 5-(2-hydroxyphenyl)-2-phthalide-3(3H)-pyrazolones as balanced multifunctional agents against Alzheimer's disease” (Eur J Med Chem, 2023):

Columns and labels:
[1] = target: Amyloid-beta precursor protein (Homo sapiens) (UniProt P05067); test: Inhibition of Cu2+-induced amyloid beta (1 to 42) (unknown origin) aggregation at 25 uM by ThT fluorescence assay
[2] = target: T1, Amine oxidase [flavin-containing] A (Homo sapiens, UniProt P21397); test: Inhibition of human recombinant MAO-A
T1 sequence (P21397 whole entry): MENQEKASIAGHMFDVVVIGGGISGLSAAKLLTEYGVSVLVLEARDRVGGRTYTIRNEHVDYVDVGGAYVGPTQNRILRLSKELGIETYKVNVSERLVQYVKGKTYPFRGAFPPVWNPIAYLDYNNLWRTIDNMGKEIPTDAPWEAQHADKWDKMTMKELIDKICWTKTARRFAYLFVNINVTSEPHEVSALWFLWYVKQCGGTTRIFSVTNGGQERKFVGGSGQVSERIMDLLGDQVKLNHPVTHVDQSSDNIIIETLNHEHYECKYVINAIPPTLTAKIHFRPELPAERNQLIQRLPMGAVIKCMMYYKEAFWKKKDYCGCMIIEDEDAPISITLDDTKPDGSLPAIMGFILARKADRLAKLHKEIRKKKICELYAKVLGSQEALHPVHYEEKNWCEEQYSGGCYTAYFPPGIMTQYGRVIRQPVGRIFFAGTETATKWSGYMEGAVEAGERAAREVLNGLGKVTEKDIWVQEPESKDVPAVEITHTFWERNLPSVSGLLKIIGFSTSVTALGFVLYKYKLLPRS

[3] = target: Amyloid-beta precursor protein (Homo sapiens) (UniProt P05067); test: Disaggregation of Cu2+-induced amyloid beta (1 to 42) (unknown origin) preformed fibrils at 25 uM by ThT fluorescence assay
[4] = Selectivity index, ratio of IC50 for human recombinant MAO-A to IC50 for human recombinant MAO-B
[5] = Antioxidant activity assessed as trolox equivalent of ORAC radical scavenging activity by ORAC-FL assay relative to trolox; type: functional
[6] = target: Amyloid-beta precursor protein (Homo sapiens) (UniProt P05067); test: Disaggregation of self-induced amyloid beta (1 to 42) (unknown origin) preformed fibrils at 25 uM by ThT fluorescence assay
[7] = target: T2, Amine oxidase [flavin-containing] B (Homo sapiens, UniProt P27338); test: Inhibition of human recombinant MAO-B
T2 sequence (P27338 whole entry): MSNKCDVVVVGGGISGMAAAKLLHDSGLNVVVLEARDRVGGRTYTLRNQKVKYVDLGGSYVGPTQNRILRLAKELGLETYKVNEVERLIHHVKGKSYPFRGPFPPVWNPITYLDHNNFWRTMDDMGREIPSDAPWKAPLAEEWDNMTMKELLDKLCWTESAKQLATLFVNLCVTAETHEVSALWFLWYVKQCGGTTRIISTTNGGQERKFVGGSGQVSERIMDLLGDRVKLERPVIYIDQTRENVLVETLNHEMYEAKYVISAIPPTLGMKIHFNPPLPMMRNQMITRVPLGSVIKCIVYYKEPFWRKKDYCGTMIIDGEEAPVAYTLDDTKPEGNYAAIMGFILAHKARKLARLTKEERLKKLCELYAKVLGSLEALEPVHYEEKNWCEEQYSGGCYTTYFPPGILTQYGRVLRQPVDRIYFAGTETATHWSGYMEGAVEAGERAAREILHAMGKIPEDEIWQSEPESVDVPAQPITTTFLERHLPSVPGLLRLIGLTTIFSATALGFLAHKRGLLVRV

MAO-A = target: T3, MAO-A (Homo sapiens, UniProt P21397); test: Inhibition of human recombinant MAO-A at 10 uM
T3 sequence (P21397 whole entry): T1 sequence (P21397 whole entry)

[8] = target: Amyloid-beta precursor protein (Homo sapiens) (UniProt P05067); test: Inhibition of self-induced amyloid beta (1 to 42) (unknown origin) aggregation at 25 uM by ThT fluorescence assay

Sequence of Amyloid-beta precursor protein (Homo sapiens) (P05067 whole entry): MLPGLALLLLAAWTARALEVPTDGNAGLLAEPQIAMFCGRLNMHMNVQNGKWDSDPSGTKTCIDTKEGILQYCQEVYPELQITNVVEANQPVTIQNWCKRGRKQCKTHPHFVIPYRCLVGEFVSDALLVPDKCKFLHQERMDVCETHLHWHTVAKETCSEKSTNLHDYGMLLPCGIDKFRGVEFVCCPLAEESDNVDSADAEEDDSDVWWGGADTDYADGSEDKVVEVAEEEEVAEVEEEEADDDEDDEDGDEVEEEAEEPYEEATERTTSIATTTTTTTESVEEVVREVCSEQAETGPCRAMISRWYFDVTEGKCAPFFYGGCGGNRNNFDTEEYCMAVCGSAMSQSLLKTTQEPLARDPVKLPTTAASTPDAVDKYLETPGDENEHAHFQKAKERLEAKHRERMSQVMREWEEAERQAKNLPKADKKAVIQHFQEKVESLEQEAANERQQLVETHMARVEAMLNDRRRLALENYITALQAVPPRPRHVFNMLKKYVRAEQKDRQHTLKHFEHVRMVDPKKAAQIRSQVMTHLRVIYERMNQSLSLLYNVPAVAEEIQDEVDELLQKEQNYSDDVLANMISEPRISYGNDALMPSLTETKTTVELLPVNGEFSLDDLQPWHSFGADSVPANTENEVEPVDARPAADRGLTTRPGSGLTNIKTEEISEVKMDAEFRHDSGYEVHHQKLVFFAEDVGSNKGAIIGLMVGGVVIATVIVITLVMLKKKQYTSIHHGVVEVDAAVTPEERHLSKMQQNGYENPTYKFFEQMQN

SMILES | inhibition [1] | IC50 [2] | Activity [3] | Ratio IC50 [4] | Ratio [5] | Activity [6] | IC50 [7] | inhibition at 10 µM (MAO-A) | inhibition [8] | Activity ([6]; tested as the 2H-labelled form) | inhibition ([8]; tested as the 2H-labelled form)
CCCCCCC1OC(=O)c2cc(N3N=C(c4cc(F)ccc4O)CC3=O)ccc21 (configuration not stated) | 31.8% | > 10 µM | 55% | > 1.6 | 1.1 equiv | 43.7% | 6.34 µM | 10.7% | 44.6% |  | 
CCCCC1OC(=O)c2cc(N3N=C(c4cccc(Br)c4O)CC3=O)ccc21 (configuration not stated) | 50.6% | > 10 µM | 62.8% | > 1 | 1.15 equiv | 67.4% | 10.5 µM | 13% | 75.5% |  | 
CCCCC1OC(=O)c2cc(N3N=C(c4cc(N(C)C)ccc4O)CC3=O)ccc21 (configuration not stated) | 63.8% | > 10 µM | 55.7% | > 1.6 | 2.58 equiv | 51% | 6.2 µM | 1.6% | 60.6% |  | 
CCCCC1OC(=O)c2cc(N3N=C(c4cc(Cl)ccc4O)CC3=O)ccc21 (configuration not stated) | 58.8% | > 10 µM | 74.6% | > 1.3 | 1.32 equiv | 49.9% | 7.62 µM | 14.1% | 85.1% |  | 
CCCCC1OC(=O)c2cc(N3N=C(c4cc(OC)ccc4O)CC3=O)ccc21 (configuration not stated) | 71% | > 10 µM | 69.1% | > 2.6 | 2.28 equiv | 59.9% | 3.88 µM | 2.97% | 78% |  | 
CC1=NN(c2ccc3c(c2)C(=O)OC3)C(=O)C1 |  |  |  | 1.6 | 1.18 equiv |  |  |  |  | 28.6% | 71.5%
C[C@H](NCc1ccc(OCc2cccc(F)c2)cc1)C(N)=O [SAFINAMIDE] |  |  |  |  |  |  |  | 9.67% |  |  | 
CCCCC1OC(=O)c2cc(N3N=C(c4cc(Br)ccc4O)CC3=O)ccc21 (configuration not stated) | 64.1% | > 10 µM | 55% | > 1.08 | 1.38 equiv | 44.8% | 9.25 µM | 10.9% | 69.3% |  | 
O=C1OCc2ccc(N3N=C(c4cc(F)ccc4O)CC3=O)cc21 | 44.7% | > 10 µM | 42.8% | > 17.9 | 1.25 equiv | 41.1% | 0.56 µM | 24.2% | 46.1% |  | 
CCCCC1OC(=O)c2cc(N3N=C(c4cc(Cl)cc(Br)c4O)CC3=O)ccc21 (configuration not stated) | 85.1% | > 10 µM | 86.8% | > 1.5 | 1.1 equiv | 87.1% | 6.5 µM | 8.09% | 65.2% |  | 
CCCCC1OC(=O)c2cc(N3N=C(c4ccccc4O)CC3=O)ccc21 (configuration not stated) | 75.3% | > 10 µM | 76.4% |  | 1.55 equiv | 65% | > 10 µM | 25.6% | 70.9% |  | 
O=C1OCc2ccc(N3N=C(c4cccc(F)c4O)CC3=O)cc21 |  | > 10 µM |  | > 11.1 | 1.1 equiv | 8.27% | 0.9 µM | 21% | 21.3% |  | 
CCCCCCCC1OC(=O)c2cc(N3N=C(c4ccccc4O)CC3=O)ccc21 (configuration not stated) | 44.1% | > 10 µM | 71.7% | > 0.9 | 1.38 equiv | 68.6% | 11.4 µM | 14.5% | 57.8% |  | 
CCCCC1OC(=O)c2cc(N3N=C(c4cc([N+](=O)[O-])ccc4O)CC3=O)ccc21 (configuration not stated) | 66.1% | > 10 µM | 61.8% | > 1.1 | 0.73 equiv | 57.2% | 9.26 µM | 8.48% | 68.8% |  | 
CCCCCCCC1OC(=O)c2cc(N3N=C(c4cc(OC)ccc4O)CC3=O)ccc21 (configuration not stated) | 63.1% | > 10 µM | 60.7% | > 3.5 | 1.82 equiv | 31.1% | 2.87 µM | 8.73% | 45.4% |  | 
CCCCCCC1OC(=O)c2cc(N3N=C(c4ccccc4O)CC3=O)ccc21 (configuration not stated) | 43.8% | > 10 µM | 66.7% | > 2.6 | 1.33 equiv | 59.5% | 3.79 µM | 21.7% | 50.3% |  | 
CCCCC1OC(=O)c2cc(N3N=C(c4ccc(N(C)C)cc4O)CC3=O)ccc21 (configuration not stated) |  | > 10 µM |  | > 2 | 1.84 equiv | 7.68% | 5.07 µM | 9.51% | 24.9% |  | 
CCCCC1OC(=O)c2cc(-n3nc(-c4ccccc4O)cc3C)ccc21 (configuration not stated) |  | > 10 µM |  |  | 1.38 equiv | 8.11% | > 10 µM | 20.4% | 19.3% |  | 
CCCCC1OC(=O)c2cc(N3N=C(c4ccc(Br)cc4O)CC3=O)ccc21 (configuration not stated) | 69.4% | > 10 µM | 66% | > 0.8 | 1.22 equiv | 54.1% | 12.3 µM | 14.8% | 65.6% |  | 
CCCCC1OC(=O)c2cc(N3N=C(c4ccc(Cl)cc4O)CC3=O)ccc21 (configuration not stated) | 66.2% | > 10 µM | 65.6% | > 1.2 | 1.29 equiv | 56.5% | 8.05 µM | 5.51% | 68% |  | 
O=C1OCc2ccc(N3N=C(c4ccccc4O)CC3=O)cc21 |  | > 10 µM |  | > 45.5 | 1.38 equiv | 28.1% | 0.22 µM | 23.2% | 33.5% |  | 
CCCCC1OC(=O)c2cc(N3N=C(c4cc(F)ccc4O)CC3=O)ccc21 (configuration not stated) | 60.3% | > 10 µM | 59.5% | > 2.9 | 1.21 equiv | 52.7% | 3.45 µM | 13.3% | 66.6% |  | 
CCCCC1OC(=O)c2cc(N3N=C(c4cc(Cl)cc(Cl)c4O)CC3=O)ccc21 (configuration not stated) | 70.3% | > 10 µM | 77.7% | > 1.8 | 0.97 equiv | 78.3% | 5.53 µM | 1.11% | 55.1% |  | 
CCCCC1OC(=O)c2cc(N3N=C(c4cc(C)ccc4O)CC3=O)ccc21 (configuration not stated) | 61.2% | > 10 µM |  | > 1.4 | 1.6 equiv | 24.7% | 7.35 µM | 5.2% | 54.4% |  | 
COc1cc(/C=C/C(=O)CC(=O)/C=C/c2ccc(O)c(OC)c2)ccc1O |  |  |  |  |  | 35.8% |  |  |  |  | 
CCCCC1OC(=O)c2cc(N3N=C(c4cccc(F)c4O)CC3=O)ccc21 (configuration not stated) | 75.9% | > 10 µM | 54.6% |  | 1.07 equiv | 42.6% | > 10 µM | 7.96% | 67% |  | 
[2H]C1OC(=O)c2cc(N3N=C(C)CC3=O)ccc21 (configuration not stated) |  | 6.78 µM |  |  |  |  | 4.36 µM |  |  |  | 
CCCCCCC1OC(=O)c2cc(N3N=C(c4cc(Cl)ccc4O)CC3=O)ccc21 (configuration not stated) | 52.7% | > 10 µM | 73.8% | > 1.2 | 1.18 equiv | 76.3% | 8.32 µM | 27.8% | 54.6% |  | 
